Data reported in publication PMC8152350, “High cytotoxicity of betulin towards fish and murine fibroblasts: Is betulin safe for nonneoplastic cells?” (BMC Veterinary Research, 2021).
In brackets after ≈: the same amount, converted by molar mass. Like-named read-outs stand apart in the source and are kept apart here.

Columns and labels:
[1] = tested on: human skin fibroblasts (HSF); settings: 24-h exposure, cited from earlier work
[2] = tested on: veterinary pathogens, both bacterial and viral; experiment: Antimicrobial activity towards veterinary pathogens (data not shown)
[3] = tested on: GOTO; set-up: method as in PMID 12697374; settings: GOTO neuroblastoma; read-out: IC50 of betulin; cited from earlier work
[4] = Solubility of betulin in DMSO; type: physicochemical; settings: organic solvent or mixture, thermodynamic from solid, room temperature, read-out: maximum solubility of betulin in DMSO
Experimental: We were able to dissolve 5000 µg of betulin in 1 mL of DMSO, although it required heating, and the solution remained unstable. After mixing with the cell culture medium, the solution immediately became slightly turbid.
A stock solution of betulin was prepared in DMSO at a concentration of 2500 µg/mL, and working solutions were prepared in cell maintenance media (serum-free) at final concentrations of 0 (control cells), 0.244, 0.488, 0.976, 1.95, 3.9, 7.8, 15.625 and 31.25 µg/mL immediately before use in cell culture.

[5] = tested on: human lung fibroblasts (WI 38); set-up: method as in PMID 12697374; settings: WI 38, trypan blue exclusion, 72 h, cited from earlier work
[6] = tested on: porcine chondrocytes; settings: cited from earlier work
[7] = tested on: porcine chondrocytes; settings: cited from earlier work; remark: listed apart in the source
[8] = tested on: B16 cells (B164A5 and B16F10); set-up: method as in PMID 25756279; settings: B16 melanoma cells; cited from earlier work
[9] = tested on: murine fibroblasts (Balb 3T3 line); set-up: method as in PMID 23595090; settings: Balb 3T3, incubation time not given; cited from earlier work
[10] = tested on: G361; set-up: method as in PMID 12697374; settings: G361 melanoma; read-out: IC50 of betulin; cited from earlier work
[11] = tested on: A375 (melanoma); set-up: method as in PMID 22627971, PMID 23379693; settings: A375, 20 µM; cited from earlier work
[12] = tested on: BF-2 cells; experiment: LDH leakage assay (cellular membrane integrity), fish fibroblasts; type: cell-based, bluegill; settings: BF-2, 24 h
Experimental: BF-2 (ATCC CCL-91) bluegill caudal trunk fibroblasts were grown in minimum essential medium (Eagle, EBSS) supplemented with 1 % nonessential amino acids (NEAAs), 10 % foetal bovine serum and 1 % antibiotic-antimycotic solution at 23 °C in a humidified atmosphere with 5 % CO2.
(§1) All experiments were repeated three times.
(§2) The LDH assay measures leakage of the stable cytosolic enzyme lactate dehydrogenase into the culture medium, which is an indicator of irreversible cell membrane damage and cell death.
(§3) The LDH assay was performed using a commercially available kit (TOX7) (Sigma-Aldrich, Poland) according to the manufacturer’s protocol. The full description of the test procedure was also reported previously. The results obtained are reported as the percentage of LDH leakage to the culture media in control (nontreated) cells.

[13] = tested on: CCRF/CEM (leukaemia); set-up: method as in PMID 23595090; settings: MTT assay; cited from earlier work
[14] = tested on: A-549; set-up: method as in PMID 16787747; settings: read-out: IC50 of betulin; cited from earlier work
[15] = tested on: human skin fibroblasts (WS1); set-up: method as in PMID 16787747; settings: WS1, resazurin reduction test, 48 h, cited from earlier work
[16] = tested on: P388 (murine leukaemia); set-up: method as in PMID 23595090; settings: P388, MTT assay; cited from earlier work
[17] = tested on: U937; set-up: method as in PMID 12697374; settings: U937 leukaemia; read-out: IC50 of betulin; cited from earlier work
[18] = tested on: NIH/3T3 cells; experiment: in vitro; type: cell-based, mouse; settings: NIH/3T3, 72 h
Experimental: as §1
(§4) The sulforhodamine B colorimetric assay measures the cellular protein content, and the assay results are proportional to the number of cells.
(§5) The SRB assay was performed using a commercially available kit (TOX6) (Sigma-Aldrich, Poland) according to the manufacturer’s protocol. In this assay, SRB binds to protein components of trichloroacetic acid-fixed cells, and the protein-bound dye is extracted with Tris. The results obtained are presented as the percentage of the total cellular protein content in control (nontreated) cells.

[19] = in vitro; type: cell-based, mouse; settings: mouse
Experimental: as §1, §4, §5

[20] = tested on: SK-MEL-28; set-up: method as in PMID 12697374; settings: SK-MEL-28 melanoma; read-out: IC50 of betulin; cited from earlier work
[21] = tested on: SW707 (colorectal adenocarcinoma); set-up: method as in PMID 23595090; settings: SW707, SRB assay; cited from earlier work
[22] = tested on: DLD-1; set-up: method as in PMID 16787747; settings: read-out: IC50 of betulin; cited from earlier work
[23] = tested on: NIH/3T3 cells; experiment: LDH leakage assay (cellular membrane integrity), murine fibroblasts; type: cell-based, mouse; settings: NIH/3T3, 24 h
Experimental: as §1, §2, §3

[24] = tested on: T47D (breast cancer); set-up: method as in PMID 23595090; settings: SRB assay; cited from earlier work
[25] = tested on: B16-F1 (mouse melanoma); set-up: method as in PMID 16787747; settings: read-out: IC50 of betulin; cited from earlier work
[26] = tested on: K562; set-up: method as in PMID 12697374; settings: K562 leukaemia; read-out: IC50 of betulin; cited from earlier work

SMILES: C=C(C)[C@@H]1CC[C@]2(CO)CC[C@]3(C)[C@H](CC[C@@H]4[C@@]5(C)CC[C@H](O)C(C)(C)[C@@H]5CC[C@]43C)[C@@H]12 [betulin, Betulin]
- betulin concentrations causing considerable LDH leakage, converted ([1]; conversion of µM value): ≥ 4.4 µg/mL
- betulin concentrations not toxic, converted ([1]; conversion of µM value): ≤ 2.2 µg/mL
- betulin concentrations causing considerable LDH leakage [1]: ≥ 10 µM
- betulin concentrations not toxic [1]: up to 5 µM
- antimicrobial activity towards tested veterinary pathogens [2]: did not confirm the antimicrobial activity
- IC50 [3]: 17.1 µM
- solubility [4]: 2500 µg/mL (≈ 5650 µM)
- IC50 of betulin, converted ([5]; conversion of µM value): ca. 6.75 µg/ml
- IC50 ([5]; read-out: IC50 of betulin): 15.2 µM
- betulin concentration causing considerable decrease in viability (MTT) [6]: 0.02 µg/mL
- betulin concentrations not affecting integrity of the cytoplasmic membrane (LDH) [7]: up to 5.12 µg/mL
- betulin concentration from which almost complete lack of cell mitochondrial activity was observed (MTT) [8]: ≥ 15 µM
- IC50 of betulin (SRB) [9]: 47.3 µg/mL
- IC50 [10]: 12.4 µM
- inhibitory activity of betulin [11]: 33.9%
- betulin concentration inducing substantial LDH leakage [12]: 7.8 µg/mL
- IC50 of betulin [13]: 10.9 µg/mL
- IC50 [14]: 3.8 µM
- IC50 of betulin, converted ([15]; conversion of µM value): ca. 1.6 µg/ml
- IC50 ([15]; read-out: IC50 of betulin): 3.58 µM
- IC50 of betulin [16]: 5.5 µg/mL
- IC50 [17]: 14.4 µM
- betulin concentration causing considerable decrease in total cellular protein content (SRB) [18]: ≥ 1.95 µg/mL
- CC50 ([19]; NIH/3T3, 24 h, mean ± SD, n = 3, read-out: CC50 betulin SRB 24 h): 10.9 ± 7.34 µg/mL (≈ 24.6 µM)
- CC50 ([19]; NIH/3T3, 48 h, mean ± SD, n = 3, read-out: CC50 betulin SRB 48 h): 4.05 ± 1.24 µg/mL (≈ 9.15 µM)
- CC50 ([19]; NIH/3T3, 72 h, mean ± SD, n = 3, read-out: CC50 betulin SRB 72 h): 3.76 ± 0.572 µg/mL (≈ 8.48 µM)
- CC50 ([19]; NIH/3T3, depending on incubation time (24-72 h), read-out: CC50 of betulin in SRB assay, range over incubation times): 3.76 to 10.9 µg/mL (≈ 8.48 to 24.6 µM)
- IC50 [20]: 16.2 µM
- IC50 of betulin [21]: 22.9 µg/mL
- IC50 [22]: 6.6 µM
- betulin concentration inducing substantial LDH leakage [23]: 7.8 µg/mL
- IC50 of betulin [24]: 32.4 µg/mL
- IC50 [25]: 13.8 µM
- IC50 [26]: 14.5 µM
